Results from paper PMC7139549, “TLD1433 Photosensitizer Inhibits Conjunctival Melanoma Cells in Zebrafish Ectopic and Orthotopic Tumour Models” (Cancers, 2020).

System: CRMM2 cells injected behind the eye (RO) of zebrafish embryos
Assay: Zebrafish orthotopic CM tumour model, CRMM2
Type: in vivo, Zebrafish (Danio rerio)
Conditions: for PI (Fluorescence Intensity) / PI (Tumour Area) / Relative Tumour Burden as Measured by Fluorescence Intensity / Tumour Area: CRMM2, Orthotopic Model; for PI (Fluorescence Intensity) / PI (Tumour Area): 0 vs 114 J.cm^−2
Description: The zebrafish ectopic conjunctival melanoma tumour model has been described previously. In this model, around 200 fluorescent CM cells are injected into the Duct of Cuvier at 2 dpf, and then disseminate through the blood circulation and grow in the head and tail. To establish the orthotopic tumour model, around 100 red, (td)Tomato fluorescent CRMM1 or CRMM2 cells were injected RO at 2 dpf into tg(Fli:GFP/Casper), endothelial reporter transgenic zebrafish with green fluorescent vasculature and examined by fluorescent microscopy at day 1 and 4 after engraftment (Figure 6A). Tumour expansion at the injection site was measured as fluorescence intensity and tumour area.
For cancer cell injection, two days post-fertilization (dpf), dechorionated zebrafish embryos were anaesthetized with 0.003% tricaine (Sigma) and plated on a 10 cm Petri dish covered with 1.5% of solidified agarose. CRMM1 and CRMM2 cells were suspended in PBS containing 2% polyvinylpyrrolidone (PVP; Sigma-Aldrich) with a concentration of 50,000 cells/µL and loaded into borosilicate glass capillary needles (1 mm O.D. × 0.78 mm I.D.; Harvard Apparatus). In the ectopic model, 200 (td)Tomato fluorescent CM cells were injected into the Duct of Cuvier or at 2 dpf, which led to dissemination through the blood circulation and outgrowth in the head and tail. In orthotopic tumour model, 100 (td)Tomato fluorescent CRMM1 or CRMM2 cells were injected RO in 2 dpf embryos using a Pneumatic Picopump and a manipulator (WPI). After injection, the embryos were incubated in a 34 °C incubator. Images were acquired at 1-, 2- and 4-days post injection (dpi) with a Leica M165 FC stereo fluorescence microscope. Tumor growth was quantified by calculating the total fluorescence intensity and area with the ZF4 pixel counting program (Leiden). Each experiment was performed at least 3 times with a group size of >30 embryos.
Fluorescent CRMM1 and CRMM2 cells were injected at 2 dpf into the Duct of Cuvier (ectopic model) and behind the eye (orthotopic model) and TLD1433 was delivered by WA, IV and RO administration with or without a light treatment as described in 4.8. For the WA administration, the 4.6 nM TLD1433 solution was added to the tumour cells injected zebrafish at 2.5, 3.5, 4.5, 5.5 dpf and maintained for 12 h. At 3, 4, 5, 6 dpf, the fish water was refreshed, and after 1 h, embryos were exposed to green light for 90 min (21 mW/cm^2, 114 J/cm^2, 520 nm). For the IV and RO administration, 1 nL of 2.3 mM TLD1433 solution was injected via the dorsal vein or the RO site at 3, 4, 5, 6 dpf. After 1 h interval, the embryos were exposed to green light for 90 min (21 mW/cm^2, 114 J/cm^2, 520 nm). After treatment, the embryos images were acquired with a Leica M165 FC stereo fluorescence microscope. Tumor growth was quantified by calculating the total fluorescence intensity and area with the ZF4 pixel counting program (Leiden). Each experiment was performed at least 3 times with a group size of >30 embryos.

[1] = Intravenous (1 nL of 2.3 mM), Light Dose 0 J.cm^−2, vs control dark group (100%)
[2] = Intravenous (1 nL of 2.3 mM), Light Dose 114 J.cm^−2, vs control dark group (100%)
[3] = Water (4.6 nM), Light dose 0 J.cm^−2, vs control dark group (100%)
[4] = Water (4.6 nM), Light dose 114 J.cm^−2, vs control dark group (100%)
[5] = CRMM2, orthotopic model, RO 2.3 mM, green light 114 J.cm^−2

Structure (SMILES): Cc1ccnc(-c2cc(C)ccn2)c1.Cc1ccnc(-c2cc(C)ccn2)c1.[Cl-].[Cl-].[Ru+2].c1csc(-c2ccc(-c3ccc(-c4nc5c6cccnc6c6ncccc6c5[nH]4)s3)s2)c1 [TLD1433]
- PI (Fluorescence Intensity) (Intravenous (1 nL of 2.3 mM)): 1.0
- PI (Tumour Area) (Intravenous (1 nL of 2.3 mM)): 1.1
- Relative Tumour Burden as Measured by Fluorescence Intensity [1]: 98%
- Tumour Area [1]: 97%
- Relative Tumour Burden as Measured by Fluorescence Intensity [2]: 95%
- Tumour Area [2]: 93%
- PI (Tumour Area) (Retro orbital (1 nL of 2.3 mM)): 3.4
- Tumour Area (Retro orbital (1 nL of 2.3 mM), Light dose 0 J.cm^−2, vs control dark group (100%)): 99%
- Tumour Area (Retro orbital (1 nL of 2.3 mM), Light dose 114 J.cm^−2, vs control dark group (100%)): 29%
- PI (Fluorescence Intensity) (Retro-orbital (1 nL of 2.3 mM)): 2.2
- Relative Tumour Burden as Measured by Fluorescence Intensity (Retro-orbital (1 nL of 2.3 mM), Light Dose 0 J.cm^−2, vs control dark group (100%)): 100%
- Relative Tumour Burden as Measured by Fluorescence Intensity (Retro-orbital (1 nL of 2.3 mM), Light Dose 114 J.cm^−2, vs control dark group (100%)): 45%
- PI (Fluorescence Intensity) (Water (4.6 nM)): 0.92
- PI (Tumour Area) (Water (4.6 nM)): 1.1
- Relative Tumour Burden as Measured by Fluorescence Intensity [3]: 96%
- Tumour Area [3]: 104%
- Relative Tumour Burden as Measured by Fluorescence Intensity [4]: 104%
- Tumour Area [4]: 95%
- diminished fluorescence intensity [5]: 55%
- diminished tumour area [5]: 71%
- effect on tumour burden (in words) (CRMM2, orthotopic model, WA at the MTD (4.6 nM), light 114 J.cm^−2): did not inhibit tumour burden
